Data set [1] relates to MIA PaCa-2. As to the kind of experiment: Reduction in basal oxygen consumption rate (OCR) in human MIA PaCa-2 cells incubated for 168 hrs. The format is functional, cell-based. As to conditions: dose 1-200 nM.
Data set [2] relates to MIA PaCa-2. The data set can be described thus: Induction of cell arrest in human MIA PaCa-2 cells assessed as late apoptotic cells at 100 nM measured after 4 days by Annexin V-FITC and propidium iodide (PI) staining based assay (reference value: 3.23%). The format is functional. The note with it: time 4 day.
Data set [3] in a line: Toxicity in BALB/c mouse xenografted with human MIA PaCa-2 cells assessed as pathological change in spleen at 25 to 100 mg/kg, iv once daily for 25 consecutive day after 2 weeks of cells injection by H and E staining based optical microscopic analysis. Format: organism-based. The note with it: in vivo, 336 h, dose 25-100 mg/kg. In general terms: A xenograft is tissue or cells of one species grown in another, often human tumour cells in immunodeficient mice.

Data set [4] deals with MIA PaCa-2. The data set can be described thus: Induction of cell arrest in human MIA PaCa-2 cells assessed as viable cells at 100 nM measured after 4 days by Annexin V-FITC and propidium iodide (PI) staining based assay (reference value: 94.9%). As to conditions: MIA PaCa-2, 96 h, time 4 day, read-out: Activity. The format is functional.
Data set [5] deals with MIA PaCa-2. As to the kind of experiment: Antiproliferative activity against human MIA PaCa-2 cells assessed as cell viability measured after 168 hrs incubation by SRB assay. Format: functional, cell-based. As to conditions: MIA PaCa-2, 168 h. A general note: The SRB assay estimates cell density from bound dye.
Data set [6] has as its system MIA PaCa-2. As to the kind of experiment: Induction of cell arrest in human MIA PaCa-2 cells assessed as accumulation of cells at G2 phase at 100 nM measured after 96 hrs by PI staining based flow cytometry (reference value: 11.2%). The format is functional. Background: In flow cytometry, cells or beads pass a laser one at a time.
Data set [7] has as its system MIA PaCa-2. The data set can be described thus: Induction of cell arrest in human MIA PaCa-2 cells assessed as late apoptotic cells at 200 nM measured after 4 days by Annexin V-FITC and propidium iodide (PI) staining based assay (reference value: 3.23%). The format is functional. As to conditions: time 4 day.
Data set [8] is described as follows: Toxicity in BALB/c mouse xenografted with human MIA PaCa-2 cells assessed as pathological change in kidney at 25 to 100 mg/kg, iv once daily for 25 consecutive day after 2 weeks of cells injection by H and E staining based optical microscopic analysis. Format: organism-based. As to conditions: in vivo, 336 h, dose 25-100 mg/kg.
The target in data set [9] is DNA-directed RNA polymerase, mitochondrial (Homo sapiens) (UniProt O00411). As to the kind of experiment: Inhibition of human POLRMT in human MIA PaCa-2 cells assessed as inhibition of mitochondria coded ubiquinone oxidoreductase core subunit 1 (ND I) transcript level measured after 12 hrs by RT-qPCR analysis. The note with it: dose 0.001-5 µM.
Chain of DNA-directed RNA polymerase, mitochondrial (Homo sapiens) (O00411 whole entry): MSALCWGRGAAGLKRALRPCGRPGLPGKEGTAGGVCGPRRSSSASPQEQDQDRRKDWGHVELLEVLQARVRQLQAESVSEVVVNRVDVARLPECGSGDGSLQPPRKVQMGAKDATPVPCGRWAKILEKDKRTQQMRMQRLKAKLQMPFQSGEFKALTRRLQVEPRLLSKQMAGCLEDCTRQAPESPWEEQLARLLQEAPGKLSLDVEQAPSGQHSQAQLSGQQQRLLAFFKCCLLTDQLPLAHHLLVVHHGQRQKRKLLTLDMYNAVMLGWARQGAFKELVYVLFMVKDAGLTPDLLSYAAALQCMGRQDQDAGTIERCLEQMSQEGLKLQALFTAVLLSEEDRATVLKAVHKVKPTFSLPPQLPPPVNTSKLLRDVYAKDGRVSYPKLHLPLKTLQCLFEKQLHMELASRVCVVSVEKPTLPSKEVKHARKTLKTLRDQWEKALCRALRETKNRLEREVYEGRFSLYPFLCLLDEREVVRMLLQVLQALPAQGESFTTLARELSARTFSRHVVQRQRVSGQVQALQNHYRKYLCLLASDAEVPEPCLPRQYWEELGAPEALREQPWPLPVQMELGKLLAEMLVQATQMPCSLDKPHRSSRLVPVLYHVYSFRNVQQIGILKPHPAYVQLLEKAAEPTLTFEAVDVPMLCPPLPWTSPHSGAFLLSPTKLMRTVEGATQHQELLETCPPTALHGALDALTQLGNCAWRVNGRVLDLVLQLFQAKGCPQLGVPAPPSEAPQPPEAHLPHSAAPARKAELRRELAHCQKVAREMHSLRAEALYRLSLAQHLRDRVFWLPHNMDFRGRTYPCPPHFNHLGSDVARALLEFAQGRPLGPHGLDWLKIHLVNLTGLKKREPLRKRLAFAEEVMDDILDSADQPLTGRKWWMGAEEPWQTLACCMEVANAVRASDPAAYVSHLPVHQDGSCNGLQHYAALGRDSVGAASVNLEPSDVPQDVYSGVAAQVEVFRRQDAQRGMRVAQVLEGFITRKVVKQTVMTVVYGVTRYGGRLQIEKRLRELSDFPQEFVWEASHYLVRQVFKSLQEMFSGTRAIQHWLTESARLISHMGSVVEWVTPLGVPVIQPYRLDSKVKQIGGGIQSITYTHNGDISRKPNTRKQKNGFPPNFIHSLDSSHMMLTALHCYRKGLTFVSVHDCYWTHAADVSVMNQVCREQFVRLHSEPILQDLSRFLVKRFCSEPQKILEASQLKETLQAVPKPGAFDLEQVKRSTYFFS
The nature of data set [10]: Toxicity in BALB/c mouse xenografted with human MIA PaCa-2 cells assessed as change in body weight at 25 to 100 mg/kg, iv once daily for 25 consecutive day after 2 weeks of cells injection. The format is organism-based. The note with it: in vivo, 600 h, dose 25-100 mg/kg, time 25 day.
Data set [11] deals with MIA PaCa-2. The data set can be described thus: In vivo antitumor activity against human MIA PaCa-2 cells xenografted in BALB/c mouse assessed as reduction in tumor weight at 25 mg/kg, iv once daily for 25 consecutive day after 2 weeks of cells injection relative to control. The format is functional. The note with it: MIA PaCa-2, 600 h, time 25 day.

Take `CCN(CC)C(=O)[C@@H](C)Oc1cc2oc(=O)cc(-c3ccccc3C)c2cc1F`: the Activity result is “Dose-Dependent Effect” with MIA PaCa-2 [1]; 3.61% with MIA PaCa-2 [2]; “Non-Toxic” in data set [3]; 11.3% in the data set with MIA PaCa-2 [6]; 3.94% in the data set on MIA PaCa-2 [7]; “Non-Toxic” in data set [8]. Also, the Activity result in data set [10] is reported as “Non-Toxic”. Further, the viability at 0.1 µM with MIA PaCa-2 [4] is 94.9%. Moreover, the IC50 in the data set with MIA PaCa-2 [5] was determined as 5 nM. In addition, the inhibition entry in data set [9] is “Dose-Dependent Effect”. In addition, the inhibition in vivo at 25 mg/kg in the data set with MIA PaCa-2 [11] was 45.2%.

Broadly, the IC50 is the point on the concentration scale where inhibition reaches its midpoint. What is called inhibition in vivo is the change of the read-out against control, counted positive when it falls.

(Values after ChEMBL document CHEMBL5550206, “Identification of 6-Fluorine-Substituted Coumarin Analogues as POLRMT Inhibitors with High Potency and Safety for Treatment of Pancreatic Cancer” (J Med Chem, 2024).)
